# Data: patent US9919060B2 (University Court of the University of Dundee, priority 2009, dated 2018)
# Entries after “also recorded” stand apart in the source; their conditions may differ.
# Assays:
# CYP1B1 [1] = molecular target: T1, CYP1B1 (Homo sapiens, UniProt Q16678); assay: Fragmentation of benzofuran ether and carbamate linked coumarins by Supersomal CYP1B1 (coumarin anion release, kinetic fluorimetry); assay type: biochemical; design: purchased BD Gentest, Oxford, UK; settings: 10 pmol enzyme, 10 μmol dm^−3 prodrug, NADPH, pH 7.4, 37° C., mean ± standard deviation of three measurements
# T1 sequence (Q16678 1-543): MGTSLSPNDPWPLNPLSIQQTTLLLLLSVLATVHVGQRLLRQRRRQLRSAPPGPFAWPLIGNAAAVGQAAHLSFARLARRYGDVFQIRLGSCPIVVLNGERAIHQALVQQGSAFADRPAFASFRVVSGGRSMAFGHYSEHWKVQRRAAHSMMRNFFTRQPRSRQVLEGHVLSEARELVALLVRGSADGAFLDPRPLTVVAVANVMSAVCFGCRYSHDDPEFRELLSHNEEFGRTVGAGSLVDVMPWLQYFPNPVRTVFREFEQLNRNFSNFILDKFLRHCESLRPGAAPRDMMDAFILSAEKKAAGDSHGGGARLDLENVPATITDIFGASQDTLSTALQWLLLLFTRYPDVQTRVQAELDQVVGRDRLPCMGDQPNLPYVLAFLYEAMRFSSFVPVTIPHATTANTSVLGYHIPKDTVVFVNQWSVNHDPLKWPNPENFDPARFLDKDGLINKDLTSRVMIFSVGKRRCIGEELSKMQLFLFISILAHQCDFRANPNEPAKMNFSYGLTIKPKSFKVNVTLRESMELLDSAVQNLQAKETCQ
# Method: (§1) Supersomal™ enzyme metabolism was started by adding a stock solution of prodrug dissolved in DMSO to give a final concentration of 10 μmol dm^−3 prodrug and 0.5% DMSO. HLM screening used 60 microliter microsomes, 100 μmol dm^−3 NADPH, in 10 mmol dm^−3 potassium phosphate buffer at pH 7.4 and 37 OC, in 1.5 ml total reaction volume.
# (§2) Therefore, enzymatic hydroxylation of the hetero-aromatic trigger and resultant linker fragmentation can be monitored in real time by release of the coumarin anion by kinetic fluorimetry.
# (§3) Release of the coumarin anion indicative of linker fragmentation was monitored using a 1 cm path length fluorescence cell in a Cary Eclipse kinetic flourimeter with excitation and emission slits set at 5 nm. Coumarin anion release from compounds of the invention was detected at the excitation wavelength λex=350·nm and the emission wavelength λem=450 nm. Change in fluorescence intensity was quantified against a linear calibration plot of fluorescence intensity versus coumarin concentration (0 to 3.5 μmol dm^−3) in 10 mmol dm^−3 potassium phosphate buffer at pH 7.4 using the same instrument settings as for enzyme metabolism.
# [2] = tested on: human liver microsomes (HLM); assay: Fragmentation of benzofuran ether and carbamate linked coumarins by pooled human liver microsomes (coumarin anion release); settings: for Specific fragmentation activity, HLM: 60 μl HLM in 1.5 ml final reaction volume, NADPH, pH 7.4, mean ± standard deviation of three measurements
# Method: as §1, §2, §3
# CYP1A1 = molecular target: T2, CYP1A1 (Homo sapiens, UniProt P04798); assay: Fragmentation of benzofuran ether and carbamate linked coumarins by Supersomal CYP1A1 (coumarin anion release, kinetic fluorimetry); assay type: biochemical; design: purchased BD Gentest, Oxford, UK; settings: 10 pmol enzyme, 10 μmol dm^−3 prodrug, NADPH, pH 7.4, 37° C., mean ± standard deviation of three measurements
# T2 sequence (P04798 1-512): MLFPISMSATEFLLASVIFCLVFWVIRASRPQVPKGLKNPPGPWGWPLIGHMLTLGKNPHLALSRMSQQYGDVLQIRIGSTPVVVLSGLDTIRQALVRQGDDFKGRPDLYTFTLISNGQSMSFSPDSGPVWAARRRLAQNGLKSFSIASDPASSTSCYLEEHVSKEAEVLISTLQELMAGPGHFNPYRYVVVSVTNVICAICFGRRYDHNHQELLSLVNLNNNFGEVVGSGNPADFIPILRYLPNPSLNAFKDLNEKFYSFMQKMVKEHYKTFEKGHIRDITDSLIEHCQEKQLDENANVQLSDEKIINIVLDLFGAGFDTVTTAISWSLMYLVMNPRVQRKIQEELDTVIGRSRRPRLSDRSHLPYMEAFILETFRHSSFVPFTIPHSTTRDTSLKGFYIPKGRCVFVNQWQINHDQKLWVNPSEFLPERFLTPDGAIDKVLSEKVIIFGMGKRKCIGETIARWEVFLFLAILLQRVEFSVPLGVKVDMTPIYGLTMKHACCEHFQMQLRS
# Method: as §1, §2, §3
# CYP1A2 = molecular target: T3, CYP1A2 (Homo sapiens, UniProt P05177); assay: Fragmentation of benzofuran ether and carbamate linked coumarins by Supersomal CYP1A2 (coumarin anion release, kinetic fluorimetry); assay type: biochemical; settings: 10 pmol enzyme, 10 μmol dm^−3 prodrug, NADPH, pH 7.4, 37° C., mean ± standard deviation of three measurements
# T3 construct: purchased BD Gentest, Oxford, UK
# T3 sequence (P05177 2-516 limits assumed): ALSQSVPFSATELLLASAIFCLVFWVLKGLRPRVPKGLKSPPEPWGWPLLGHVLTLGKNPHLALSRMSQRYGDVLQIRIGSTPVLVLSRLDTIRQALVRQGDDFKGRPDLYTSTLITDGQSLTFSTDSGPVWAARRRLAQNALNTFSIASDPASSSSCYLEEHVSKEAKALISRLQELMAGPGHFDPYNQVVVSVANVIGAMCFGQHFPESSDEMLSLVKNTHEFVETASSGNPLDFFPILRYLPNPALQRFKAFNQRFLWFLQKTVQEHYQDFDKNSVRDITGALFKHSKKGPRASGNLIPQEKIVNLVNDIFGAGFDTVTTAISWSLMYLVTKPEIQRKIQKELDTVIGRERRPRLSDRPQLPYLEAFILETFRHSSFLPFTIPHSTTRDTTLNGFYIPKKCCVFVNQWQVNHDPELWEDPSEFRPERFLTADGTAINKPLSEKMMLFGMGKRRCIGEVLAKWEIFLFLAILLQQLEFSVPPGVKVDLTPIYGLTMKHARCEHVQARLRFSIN
# Method: as §1, §2, §3
# CYP1B1 [3] = molecular target: T1, CYP1B1; assay: CYP1B1 substrate prediction model (Gaussian Kernel weighted k-NN)
# [4] = tested on: UTSCC-14 primary human tumour xenograft; assay: Anti-tumour activity in primary human tumour xenograft model (UTSCC-14, subcutaneous, nude mice); assay type: in vivo; settings: for Tumour growth delay at 28 days: 2 cycles: daily for 5 days/2 days off
# Method: Primary UTSCC-14 cell lines 3×10^6 were implanted subcutaneously in the flank of nude mice. Mice were randomized to 10 animals per group when the tumour volume was 100 to 150 mm^3. SU046-04 was given intraperitoneally at 12, 25 and 50 mg/Kg in PBS versus versus vehicle alone for 2 cycles: daily for 5 days/2 days off. Tumour volume was measured every 4 days using calipers. […] Tumour growth delay at 28 days was 31% at 12 mg/Kg, 56% at 25 mg/Kg, and 90% at 50 mg/Kg with 4/10 complete responses.
Compound,"Specific fragmentation activity, HLM [2]","Specific fragmentation activity, CYP1A2 (CYP1A2)","% CYP1B1 substrate inhibition, accuracy (predicted versus actual) (CYP1B1 [3])",further results
"Cc1cc(=O)oc2cc(OCc3cc4ccccc4o3)ccc12 [SU010A, 7-(benzofuran-2-ylmethoxy)-4-methyl-2H-chromen-2-one]",,,,"Specific fragmentation activity, CYP1B1 (CYP1B1 [1]; listed as SU10A): fragmented; Specific fragmentation activity, HLM ([2]; listed as SU10A): fragmented; Specific fragmentation activity, CYP1A1 (CYP1A1; listed as SU10A): fragmented; Specific fragmentation activity, CYP1A2 (CYP1A2; listed as SU10A): fragmented"
"Cc1cc(=O)oc2cc(NC(=O)OCc3cc4ccccc4o3)ccc12 [SU018-03, benzofuran-2-ylmethyl 4-methyl-2-oxo-2H-chromen-7-ylcarbamate]",no release,no release,,"Specific fragmentation activity, CYP1B1 (CYP1B1 [1]): no release"
COc1cc(OC)c2oc(COP(=O)(NCCCl)NCCCl)cc2c1 [SU025-04],,,96%,
COc1cc(OC)c2oc(COP(=O)(NCCBr)NCCBr)cc2c1 [SU046-04],,,96%,"Tumour growth delay at 28 days ([4]; 12 mg/Kg intraperitoneally): 31%; Tumour growth delay at 28 days ([4]; 25 mg/Kg intraperitoneally): 56%; Tumour growth delay at 28 days ([4]; 50 mg/Kg intraperitoneally): 90%; Complete responses ([4]; 50 mg/Kg intraperitoneally, 10 animals per group): 4/10; Adverse effects and body weight loss ([4]; after highest exposure 250 mg/Kg): No observed adverse effects or significant body weight loss; Tumour growth compared to the vehicle alone ([4]; all three treatment arms: 12, 25 and 50 mg/Kg intraperitoneally): significant inhibition of tumour growth"
"Cc1cc(=O)oc2cc(OCc3cc4cc(F)cc(F)c4o3)ccc12 [VG016-05, 7-((5,7-difluorobenzofuran-2-yl)methoxy)-4-methyl-2H-chromen-2-one]",no release,no release,82%,"Specific fragmentation activity, CYP1B1 (CYP1B1 [1]): no fragmentation of the linker; also recorded: no release; Specific fragmentation activity, CYP1B1 (CYP1B1 [1]; listed as VG016-04): inhibits CYP1 isoenzyme and HLM-induced fragmentation; Specific fragmentation activity, CYP1A1 (CYP1A1): no release"
"COc1ccc2oc(COC(=O)Nc3ccc4c(C)cc(=O)oc4c3)cc2c1 [VG032-05, (5-methoxybenzofuran-2-yl)methyl 4-methyl-2-oxo-2H-chromen-7-ylcarbamate]",,no release,,
"COc1cc(OC)c2oc(COc3ccc4c(C)cc(=O)oc4c3)cc2c1 [VG035-05, 7-((5,7-dimethoxybenzofuran-2-yl)methoxy)-4-methyl-2H-chromen-2-one]",no linker fragmentation; also recorded: no release,no linker fragmentation; also recorded: no release,96%,"Specific fragmentation activity, CYP1A1 (CYP1A1): no linker fragmentation; also recorded: no release"
"Cc1cc(=O)oc2cc(NC(=O)OCc3cc4cc(Br)ccc4o3)ccc12 [VG036-05, (5-bromobenzofuran-2-yl)methyl 4-methyl-2-oxo-2H-chromen-7-ylcarbamate]",no release,no release,,"Specific fragmentation activity, CYP1B1 (CYP1B1 [1]): no release; Specific fragmentation activity, CYP1A1 (CYP1A1): no release"
"COc1cc(OC)c2oc(COC(=O)Nc3ccc4c(C)cc(=O)oc4c3)cc2c1 [VG041-05, (5,7-dimethoxybenzofuran-2-yl)methyl 4-methyl-2-oxo-2H-chromen-7-ylcarbamate]",no release,no release,,"Specific fragmentation activity, CYP1B1 (CYP1B1 [1]): not CYP1A2 or CYP1B1; also recorded: no release"
"CCOc1ccc2nc3ccc(=O)cc-3oc2c1 [ethoxyresorufin, 7-ethoxyresorufin]",,,95%,
C=C[C@H]1C[N@@]2CC[C@H]1C[C@@H]2[C@@H](O)c1ccnc2ccc(OC)cc12 [quinidine],,,64%,
Oc1ccc(C=Cc2cc(O)cc(O)c2)cc1 [resveratrol],,,95%,
Nc1ccc(S(=O)(=O)Nc2ccnn2-c2ccccc2)cc1 [sulfaphenazole],,,68%,
"O=c1cc(-c2ccccc2)oc2c1ccc1ccccc12 [α-napthoflavone, α-naphthoflavone, reference compound]",,,,"Effect of α-naphthoflavone on HLM-mediated SU10A fragmentation (coumarin release) ([2]; HLM, inclusion of 10 μmol dm^−3 α-naphthoflavone): inhibits SU10A fragmentation"
C[C@]12CC[C@@H]3c4ccc(O)cc4CC[C@H]3[C@@H]1CC[C@@H]2O [β-estradiol],,,95%,
